Key:
PADI4 = assay: in vitro citrullination (deimination) assay of HP1γ; assay type: biochemical, human; settings: with calcium; for citrullination by PADI4, in words: GST fusion proteins, anti-peptidyl-citrulline immunoblot, n = 3 (p values 0.002, 0.003, 0.008)
Description: For immunoblotting, cells were lysed in 2 × Laemmli buffer and sonicated in a water bath (Fisherbrand) for 3 min to shear genomic DNA, spun down at full speed in a microfuge for 15 min and incubated for 5 min at 95 °C. Proteins were resolved by SDS-PAGE, transferred to nitrocellulose membrane (Millipore) using wet transfer (transfer buffer: 192 mM glycine, 25 mM Tris.HCl pH8.8) and incubated in blocking solution (5% BSA in TBS containing 0.5% Tween-20 for citrulline sensitive antibodies and 5% non-fat milk powder in TBS containing 0.1% Tween-20 for all other antibodies) for 1 h at room temperature (RT). Membranes were incubated with primary antibody at 4 °C o/n and appropriate HRP-conjugated secondary antibody for 1 h at RT. Membranes were then incubated for enhanced chemiluminescence (ECL, Promega), and proteins were detected by exposure to X-ray film or using the ChemiDoc™ MP imaging system (Bio-Rad). Images were quantified using ImageJ analysis software. Primary antibodies diluted in blocking solution were used to detect citrullinated histone H3R2 (H3R2-Cit, Abcam ab176843 at 1:1000 dilution), HP1γ (Millipore 05-690 MAB clone 42s2 [16] at 1:1000 dilution), β-Tubulin (Abcam ab6046 at 1:1000 dilution) and peptidyl-citrulline (Millipore MABN328, clone F95 [48] at 1:1000 dilution). HRP-conjugated secondary antibodies diluted in blocking solution were used against mouse IgG (Dako, P0447 at 1:5000 dilution), rabbit IgG (Abcam, ab6721 at 1:20,000 dilution) and sheep IgG (Abcam, ab6747 at 1:5000 dilution).
In vitro deimination of GST-HP1 variants was carried out as described previously [22]. In vitro deimination assays were performed in the presence and absence of 100 ng H3(1–16) or H3K9me3 peptides as appropriate. Samples were resuspended in 1 × Laemmli buffer for immunoblot analysis.

mESCs [1] = assay: immunoprecipitation of endogenous HP1γ and anti-peptidyl-citrulline immunoblot; assay type: cell-based, mouse; settings: −LIF 72 h versus +LIF; nuclear lysates; three replicates
Description: For immunoblotting, cells were lysed in 2 × Laemmli buffer and sonicated in a water bath (Fisherbrand) for 3 min to shear genomic DNA, spun down at full speed in a microfuge for 15 min and incubated for 5 min at 95 °C. Proteins were resolved by SDS-PAGE, transferred to nitrocellulose membrane (Millipore) using wet transfer (transfer buffer: 192 mM glycine, 25 mM Tris.HCl pH8.8) and incubated in blocking solution (5% BSA in TBS containing 0.5% Tween-20 for citrulline sensitive antibodies and 5% non-fat milk powder in TBS containing 0.1% Tween-20 for all other antibodies) for 1 h at room temperature (RT). Membranes were incubated with primary antibody at 4 °C o/n and appropriate HRP-conjugated secondary antibody for 1 h at RT. Membranes were then incubated for enhanced chemiluminescence (ECL, Promega), and proteins were detected by exposure to X-ray film or using the ChemiDoc™ MP imaging system (Bio-Rad). Images were quantified using ImageJ analysis software. Primary antibodies diluted in blocking solution were used to detect citrullinated histone H3R2 (H3R2-Cit, Abcam ab176843 at 1:1000 dilution), HP1γ (Millipore 05-690 MAB clone 42s2 [16] at 1:1000 dilution), β-Tubulin (Abcam ab6046 at 1:1000 dilution) and peptidyl-citrulline (Millipore MABN328, clone F95 [48] at 1:1000 dilution). […]

H3K9me3(1–16) peptides [2] = assay: peptide pulldown assay; assay type: binding; settings: 300 mM NaCl HBS-EP; Coomassie gel; n = 3 (p values 0.021, 0.008; ns 0.181)
Description: H3K9me3 or unmethylated H3(1–16) peptides, linked to Dynabeads MyOne streptavidin T1 (Thermo Fisher Scientific), were used in pulldown assays with eluted GST-HP1 in HBS-EP (300 mM NaCl, 10 mM HEPES KOH pH 7.4, 5 mM EDTA and 0.2% NP-40). Pulldown assays were performed in 300 mM NaCl HBS-EP as previously described. Samples were resuspended in 2 × Laemmli buffer and resolved by SDS-PAGE followed by Coomassie-blue staining. Images were quantified using ImageJ software.

H3K9me3(1–16) peptides [3] = assay: bio-layer interferometry (BLI); assay type: binding; settings: 20 mM Hepes KOH pH 7.2, 70 mM KCl, GST fusion, association 120 s, dissociation 120 s, WT 28.0 μM, R38/9K 25.5 μM, R38/9A 28.3 μM and lower concentrations
Description: Recombinant mouse full-length HP1 wildtype and mutant proteins were expressed in (as GST fusion proteins), and purified from, Escherichia coli as described. Proteins were concentrated using Amicon Ultra centrifugation filters with a 30 kDa cutoff (Millipore), washed into binding buffer (20 mM Hepes KOH pH 7.2, 70 mM KCl, 1 mM DTT, 0.1% Tween-20, 5% glycerol). Protein concentrations were determined by Bradford protein assay against a BSA standard, and purity was verified by SDS-PAGE followed by Coomassie-blue staining. Real-time binding assays of GST-HP1γ were performed using the BLItz® system (ForteBio) in binding buffer (+ 0.1% BSA). Biotinylated H3(1–16) peptides (NH2-[…](me3)STGGKAP-Biotin) were immobilised to Dip and Read High Precision Streptavidin (SAX) Biosensors (ForteBio), and kinetics for a range of protein concentrations were measured under advanced kinetics settings (1. initial baseline measuring buffer only: 30 s, 2. loading of peptides onto sensors: 120 s, 3. effective baseline measurement: 30 s, 4. association of GST-HP1γ proteins: 120 s, 5. dissociation of GST-HP1γ proteins: 120 s). The data were normalised to the effective baseline signal by subtracting the average baseline value (150–180 s) from each data point (150–420 s). […] Raw data are summarised in Additional file 3: Table S1.

mESCs [4] = assay: live-cell single-particle tracking, 13.5 ms, jump distance analysis; assay type: cell-based, mouse; settings: for Diffusion coefficient, Bound / Diffusion coefficient, Diffusing / Percentage, Bound / Percentage, Diffusing: 13.5 ms
Description: Parental E14 mouse embryonic stem cell (mESC) line was profiled by transcriptome analysis, qPCR and potency assays and was routinely tested for mycoplasma contamination and tested negative. Cells were cultured in DMEM (Gibco) supplemented with 15% standard FCS (Gibco), 0.1 mM non-essential amino acids (Gibco), 1% penicillin/streptomycin, 2 mM L-glutamine (Gibco), 1 mM sodium pyruvate (Gibco), 0.1 mM β-mercaptoethanol (Life Technologies) and 10^6 units/l mLIF (ESGRO, Millipore). E14 cells were stored in incubators at 37 °C in 7.5% CO2 (100% humidity) and maintained in 0.1% gelatin coated 10-cm culture dishes with 1:6 passaging every 2 days. Media was changed on a daily basis. E14 ESCs expressing mouse mEos3.2–HaloTag-HP1 fusion proteins were generated by transfecting appropriate pSB7 plasmids into E14 cells using Lipofectamine 2000 transfection reagent (Invitrogen), followed by selection in 600 µg/ml geneticin (Life Technologies). After 2 weeks of geneticin selection, cells were sorted using a Sony SH800S cell sorter for the expression of mEos3.2. Differentiation of ESCs was induced by LIF withdrawal. ESCs cultured in complete ES cell media (+ LIF) were trypsinised and washed twice in 1x PBS to remove residual LIF, seeded into ES cell media without LIF and incubated for 24, 48 or 72 h.
An IX73 Olympus inverted microscope was used with circularly polarised laser beams aligned and focused at the back aperture of an Olympus 1.40 NA 100 × oil objective (Universal Plan Super Apochromat, 100 × , NA 1.40, UPLSAPO100XO/1.4). Continuous wavelength diode laser light sources used include a 561-nm (Cobolt, Jive 200, 200 mW) and a 405-nm laser (Stradus, Toptica, 405–100, 100 mW). Oblique angle illumination was achieved by aligning the laser off axis such that the emergent beam at the sample interface was near-collimated and incident at an angle slightly less than the critical angle θc ~ 67° for a glass/water interface. This generated a ~ 50 μm diameter excitation footprint. The power of the collimated beams at the back aperture of the microscope was 10 kW/cm^2 and 10–100 W/cm^2 for the 561-nm and 405-nm laser beams, respectively. The lasers were reflected by dichroic mirrors (Semrock, Di01-R405/488/561/635). The fluorescence emission was collected through the same objective and then further filtered using a combination of long-pass and band-pass filters (BLP01-561R and FF01-587/35 for 561 nm excitation). The emission signal was projected onto an EMCCD (Photometrics, Evolve 512 Delta) with an electron multiplication gain of 250 ADU/photon operating in a frame transfer mode.
mESCs expressing mEos3.2–HaloTag-tagged HP1γ were passaged 2 days before imaging onto 35-mm glass bottom dishes No 1.0 (MatTek Corporation P35G-1.0-14-C Case) in phenol red-free serum and LIF conditions, if not stated otherwise. Just before single-particle tracking (SPT) imaging experiments, cells were labelled with 0.5 nM HaloTag–JF549 ligand for at least 15 min, followed by two washes in PBS and a 30-min incubation at 37 °C in media, before imaging the cells in fresh phenol red-free serum and LIF conditions. Cells were under-labelled to prevent overlap of fluorophores during SPT. Using 561 nm excitation, fluorescence images were collected as movies of 10,000 frames at 13.5 ms or 1000 to 5000 frames at 500 ms exposure. For live-cell tracking, data were collected for three biological replicates on separate dishes and the average values compared.
Live-cell 13.5-ms single-molecule traces were analysed using software that detects single-molecule trajectories from SPT movies. Briefly, the code detected puncta positions in each image frame using a brightness-weighted centroid after applying a band-pass filter to remove low-frequency background and high-frequency noise from the image data. To track the HP1 single molecules, only fluorescent puncta smaller than 3 pixels and with a signal to noise greater than 8 were analysed. […]

heterochromatin protein 1 gamma [HP1γ]
citrullination by PADI4, in words (PADI4): PADI4 citrullinates HP1γ in vitro | citrullination of endogenous HP1γ in differentiating mESCs (mESCs [1]): significantly less citrullinated in differentiating mESCs | binding in pulldown, in words (H3K9me3(1–16) peptides [2]): specifically binds to H3K9me3 peptides

HP1γR38/9K: HP1γ with both R38 and R39 mutated to lysine
enhancement of citrullination by H3K9me3 peptides, in words (PADI4; H3K9me3(1–16) peptides, mutant used as substrate): abolished | binding in pulldown, in words (H3K9me3(1–16) peptides [2]): maintained binding to H3K9me3 peptides | BLI binding, in words (H3K9me3(1–16) peptides [3]): binds H3K9me3 peptides with similar affinity to the WT protein | BLI binding, in words (H3K9me3(1–16) peptides [3]; listed as R38/9K): maintained binding to H3K9me3 peptides

HP1γI165K: chromoshadow domain (CSD) mutant HP1γI165K, which prevents dimerisation of HP1γ [reference compound]
Diffusion coefficient, Bound (mESCs [4]; +LIF, replicate i): 0.081 µm2s-1 | Diffusion coefficient, Diffusing (mESCs [4]; +LIF, replicate i): 1.500 µm2s-1 | Percentage, Bound (mESCs [4]; +LIF, replicate i): 32.7% | Percentage, Diffusing (mESCs [4]; +LIF, replicate i): 67.3% | Diffusion coefficient, Bound (mESCs [4]; +LIF, replicate ii): 0.100 µm2s-1 | Diffusion coefficient, Diffusing (mESCs [4]; +LIF, replicate ii): 1.485 µm2s-1 | Percentage, Bound (mESCs [4]; +LIF, replicate ii): 20.9% | Percentage, Diffusing (mESCs [4]; +LIF, replicate ii): 79.1% | Diffusion coefficient, Bound (mESCs [4]; +LIF, replicate iii): 0.00228 µm2s-1 | Diffusion coefficient, Diffusing (mESCs [4]; +LIF, replicate iii): 1.500 µm2s-1 | Percentage, Bound (mESCs [4]; +LIF, replicate iii): 0.4% | Percentage, Diffusing (mESCs [4]; +LIF, replicate iii): 99.6% | Diffusion coefficient, Bound (mESCs [4]; +LIF, replicate iv): 0.023 µm2s-1 | Diffusion coefficient, Diffusing (mESCs [4]; +LIF, replicate iv): 1.500 µm2s-1 | Percentage, Bound (mESCs [4]; +LIF, replicate iv): 4% | Percentage, Diffusing (mESCs [4]; +LIF, replicate iv): 96% | diffusion coefficient of bound molecules, in words (mESCs [4]; mESCs, n = 4–5): remained unchanged | diffusion of diffusing molecules versus wildtype (mESCs [4]; mESCs, n = 4–5, p value: 0.0001): moved significantly more quickly than wildtype molecules | percentages of molecules within diffusing and bound fraction, significance versus WT (mESCs [4]; n = 4–5, p value > 0.165): ns. | Diffusion coefficient, Diffusing (mESCs [4]; −LIF, replicate i): 1.101 µm2s-1 | Percentage, Bound (mESCs [4]; −LIF, replicate i): 10% | Percentage, Diffusing (mESCs [4]; −LIF, replicate i): 90% | Diffusion coefficient, Bound (mESCs [4]; −LIF, replicate ii): 0.098 µm2s-1 | Diffusion coefficient, Diffusing (mESCs [4]; −LIF, replicate ii): 1.500 µm2s-1 | Percentage, Bound (mESCs [4]; −LIF, replicate ii): 16.6% | Percentage, Diffusing (mESCs [4]; −LIF, replicate ii): 83.4%

R39K: HP1γ with R39 substituted with lysine
citrullination by PADI4, in words (PADI4): abolished
